Where a SMILES comes first, the peptide text is derived from it.

The conditions of series [1]: following repeat dosing.
Series [2] is described as follows: LPS challenge study in healthy smokers: safety and tolerability (adverse events). How it is done:
Period/sequence effects were analyzed to determine potential impact of treatment order.
First multi-day dosing in humans employed a single low dose of 2.25 mg, extrapolated from animal studies (37.5 μg/kg, based on 60 kg human).
The primary study endpoints were safety and tolerability following first repeat administration and induced sputum inflammatory biomarkers interleukin-6 (IL-6), interleukin-1β (IL-1β), interleukin-8 (IL-8) and tumor necrosis factor alpha (TNFα) following inhaled LPS (30 μg) challenge, day 5.

The nature of the next series: in vitro. The following applies: cells (cell type not stated).
For series [3] the following is noted: inhaled, even at high doses.
The subject of the next series is Rat bowel anastomosis. The following applies: vs placebo; cited from earlier work.
Series [4] deals with Ca2+/calmodulin-dependent protein kinase II (CaMKII). The following applies: cited from earlier work.
In the next series the target is CaMKIV (Homo sapiens, UniProt Q16566). The following applies: 1 μM; cited from earlier work.
Sequence of CaMKIV (Q16566 whole entry, species assumed): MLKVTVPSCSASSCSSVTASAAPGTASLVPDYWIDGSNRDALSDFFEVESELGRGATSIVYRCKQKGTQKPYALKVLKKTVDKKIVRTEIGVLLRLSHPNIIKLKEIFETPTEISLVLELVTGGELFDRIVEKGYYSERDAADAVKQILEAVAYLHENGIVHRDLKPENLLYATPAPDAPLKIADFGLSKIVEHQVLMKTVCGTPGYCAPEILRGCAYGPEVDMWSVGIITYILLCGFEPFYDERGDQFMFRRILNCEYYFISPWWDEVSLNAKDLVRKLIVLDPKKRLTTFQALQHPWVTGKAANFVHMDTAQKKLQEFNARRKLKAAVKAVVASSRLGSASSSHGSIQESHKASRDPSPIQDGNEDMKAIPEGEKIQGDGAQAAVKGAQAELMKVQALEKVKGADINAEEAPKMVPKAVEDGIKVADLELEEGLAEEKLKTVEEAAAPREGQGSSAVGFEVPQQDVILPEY
A further series concerns PKC. The following applies: 1 μM; cited from earlier work.
A further series concerns PKA. Particulars: 1 μM; cited from earlier work.

On to `CC(C)C[C@H](NC(=O)[C@H](C)NC(=O)[C@H](CCCCN)NC(=O)[C@H](C)NC(=O)[C@H](CCCNC(=N)N)NC(=O)[C@H](C)NC(=O)[C@H](CCC(N)=O)NC(=O)[C@H](CCCNC(=N)N)NC(=O)[C@H](C)NC(=O)[C@H](C)NC(=O)[C@H](C)NC(=O)[C@H](CCCNC(=N)N)NC(=O)[C@H](C)NC(=O)[C@@H](N)Cc1ccc(O)cc1)C(=O)N[C@@H](C)C(=O)N[C@@H](CCCNC(=N)N)C(=O)N[C@@H](CCC(N)=O)C(=O)N[C@@H](CC(C)C)C(=O)NCC(=O)N[C@H](C(=O)N[C@@H](C)C(=O)N[C@@H](C)C(=O)O)C(C)C` [MMI-0100] (H-YARAAARQARAKALARQLGVAA-OH), for which, in series [1], the “effect on lung function (FEV1)” value was “no deleterious effect”. For the same molecule, in series [2] (N = 22), the “Any AE leading to treatment D/C, Patients %” value is listed as “(0%)”; the “Any AE leading to treatment D/C, Patients N” value is reported as 0; the “Any TEAE, Patients %” value is “(40.9%)”; the “Any TEAE, Patients N” value stood at 9. Moreover, in series [2] (N = 22), the “Deaths, Patients %” value is listed as “(0%)”; the “Deaths, Patients N” value is recorded as 0; the “Mild TEAE, Patients %” value is “(27.3%)”; the “Mild TEAE, Patients N” value stood at 6. In series [2] (N = 22), the “Moderate TEAE, Patients %” value is “(18.2%)”; the “Moderate TEAE, Patients N” value is 4; the “Severe or life threatening TEAE, Patients %” value is on record as “(0%)”; the “Severe or life threatening TEAE, Patients N” value worked out at 0. Besides, in [2] (Safety Population N = 22), the “Any serious treatment emergent adverse event, % of subjects” value was “(0.5%)”; the “Any serious treatment emergent adverse event, subjects” value stood at 0; the “Concussion (serious TEAE), % of subjects” value was “(0%)”; the “Concussion (serious TEAE), subjects” value stood at 0. In series [2] (Safety Population N = 22), the “Injury, poisoning and procedural complications (serious TEAE), % of subjects” value is listed as “(0%)”; the “Injury, poisoning and procedural complications (serious TEAE), subjects” value worked out at 0; the “Joint dislocation (serious TEAE), % of subjects” value is “(0%)”; the “Joint dislocation (serious TEAE), subjects” value is listed as 0. Further, the “Number of serious treatment emergent adverse events” value in series [2] (Safety Population N = 22) is given as 0. Further, the safety and tolerability result in series [2] (first repeat administration, 2.25 mg inhaled, 5 days) is “safe and well-tolerated”. Further, the half-life in “in vitro” was approximately 77 h. For the same molecule, the MMI-0100 plasma concentrations result in series [3] was “little to no detectable”. For the same molecule, the “healing (integrity of anastomosis)” value in the series with Rat bowel anastomosis was “healing (integrity of anastomosis) unaffected”.

Consider “autocamtide-2 related inhibitory peptide [AIP]”, for which the CaMKII activity entry in series [4] (1 μM) is “inhibited completely”. In addition, the IC50 in series [4] (CaMKII) was 100 nM. At CaMKIV, the CaMKIV activity entry is listed as “not affected”. For the same molecule, the PKC activity result in the series with PKC is “not affected”. Further, the PKA activity result in the series with PKA is recorded as “not affected”.
